Format in all cases: biochemical
The target of assay [1] is T1, MKP5 (Homo sapiens, UniProt Q9Y6W6).
T1 sequence (Q9Y6W6 1-482): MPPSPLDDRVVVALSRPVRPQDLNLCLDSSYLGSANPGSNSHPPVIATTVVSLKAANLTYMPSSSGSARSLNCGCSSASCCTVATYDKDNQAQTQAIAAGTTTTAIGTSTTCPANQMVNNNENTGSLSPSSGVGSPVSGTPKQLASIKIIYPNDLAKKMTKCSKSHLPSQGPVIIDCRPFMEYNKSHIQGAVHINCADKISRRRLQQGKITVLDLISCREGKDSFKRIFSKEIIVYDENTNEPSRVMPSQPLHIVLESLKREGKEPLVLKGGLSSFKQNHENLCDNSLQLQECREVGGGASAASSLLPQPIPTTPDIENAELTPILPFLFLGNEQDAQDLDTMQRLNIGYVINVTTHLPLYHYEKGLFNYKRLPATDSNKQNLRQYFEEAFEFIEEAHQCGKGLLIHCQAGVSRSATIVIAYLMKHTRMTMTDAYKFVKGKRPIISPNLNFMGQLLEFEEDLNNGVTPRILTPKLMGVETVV
Put plainly: MKP5 EZReader assay with fluorescent mono-phosphorylated peptides.

Assay [2] deals with T1, MKP5. Briefly: MKP-5 Malachite Green phosphate assay with dual phosphorylated peptide pTpY. The settings on record: for inhibition at 12.5 µM: read-out: % inhibition of MKP-5. The source says:
In a non-limiting example, the assay comprises contacting a peptide comprising the sequence pThr-Gly-pTyr, the polypeptide comprising and/or consisting of the catalytic domain of MKP-5 (such as but not limited to residues 305-482 of SEQ ID NO:4), or an active fragment thereof, and the test compound. If the test compound is a MKP-5 inhibitor, it will inhibit the dephosphorylation of the peptide comprising the sequence pThr-Gly-pTyr. If the test compound is not a MKP-5 inhibitor, it will not inhibit the dephosphorylation of the peptide comprising the sequence pThr-Gly-pTyr. Dephosphorylation of that peptide can be evaluated qualitatively and/or quantitatively using any methods known in the art, such as but not limited to a Malachite Green Phosphate Assay. This assay provides a fast, reproducible, colorimetric method for measuring inorganic free phosphate in aqueous solutions. The assay method is based on the formation of a complex between malachite green molybdate and free orthophosphate that absorbs at 620-640 nm. This assay is a reliable and suitable means of detecting and quantifying minimal amounts of inorganic free phosphate and is amenable to high-throughput screening applications.
Compounds from the pilot collection consisting of Microsource GenPlus, Microsource Natural Product, NIH Clinical collections, ChemBridge DIVERSet, ChemBridge MicroFormats, Maybridge Diversity, and ChemBridge Amines and Alcohols were screened. Assay conditions were 1.5 μM MKP-5 and 25 μM dual phosphorylated peptide DDE (Nle) (pT) G (pY) VATR (10 μL total volume), incubated for 30 minutes at 37° C. followed by addition of 40 μL Malachite Green reagent. Z′ values are ˜0.7-0.8. Malachite green reagent was made by combining 30 mL 0.045% Malachite Green (Sigma #M-9636) with 20 mL 4.2% ammonium molybdate in 4 M HCl, shaking for at least 30 mins and adding 0.01% Tween 20.

The target of assay [3] is T1, MKP5. Put plainly: MKP5 pNPP assay.
The target of assay [4] is T1, MKP5. Put plainly: MKP-5 inhibition, assay not specified. The settings on record: read-out: IC50 against MKP-5.
[5] abbreviates: Kd (M) MKP5 EZREader fluor pT_Y, substrate fluor pT_Y (SEQ ID NO: 2).
The mark [6] stands for this setting: Kd (M) MKP5 EZReader fluor_TpY, substrate fluor_TpY (SEQ ID NO: 1).

Seven compounds from patent US20240335445A1, “Compounds and Compositions for Treating Fibrosis” (YALE UNIVERSITY, priority 2017, published 2024) can be followed below.

Bounds are passed on as bounds.

On to `CSc1scc2c1-c1nc(SCC(=O)C(C)(C)C)ncc1CC2` [YU032149, 3,3-dimethyl-1-((9-(methylthio)-5,6-dihydrothieno[3,4-h]quinazolin-2-yl)thio)butan-2-one], for which the dissociation constant Kd in assay [1] (setting [5]) was 1.13e-05 M; in assay [1] (setting [6]), 1.75e-05 M; in assay [2], 6.25 µM; in assay [3] it was 4.23 µM. For the same compound, the half-inhibitory concentration (IC50) in assay [4] was approximately 12 µM.

In the case of `O=c1cc2oc3cc(O)c(O)cc3c(-c3ccc([N+](=O)[O-])o3)c-2cc1O` [YU109017], the Kd was 1.56e-05 M in assay [1] (setting [5]), 1.03e-05 M in assay [1] (setting [6]), more than 100 µM in assay [2] and more than 100 µM in assay [3].

As for `O=C(O)c1ccc(C2Nc3c(-c4ccccc4)cccc3C3C=CCC32)cc1` (centres unmarked) [YU119284], the Kd is more than 0.0002 M in assay [1] (setting [5]), more than 0.0002 M in assay [1] (setting [6]), more than 100 µM in assay [2] and more than 200 µM in assay [3].

As to `Cc1ccc(C)n1-c1ccc(C(=O)O)c(O)c1` [YU129641], the dissociation constant Kd in assay [1] (setting [5]) is 1.41e-05 M; in assay [1] (setting [6]), 1.04e-05 M; in assay [2], more than 100 µM; in assay [3], more than 200 µM.

For `CC(C)(C)C(=O)CSc1ncc2cnc3ccccc3c2n1` [YU241658], in assay [2], the inhibition at 12.5 µM worked out at 15%.

Take `CC(=O)N1Cc2cnc(SCC(=O)C(C)(C)C)nc2-c2ccccc21` [YU241659]: the inhibition at 12.5 µM in assay [2] is 12%.

For `CC(C)(C)C(=O)CSc1ncc2c(n1)-c1ccsc1CC2` [YU252252], the inhibition at 12.5 µM in assay [2] worked out at 37%.

A word on the Kd: it is the free concentration of one partner at which half of the binding sites on the other are occupied at equilibrium, for simple one-to-one binding. Usually IC50 stands for the point on the concentration scale where inhibition reaches its midpoint. The inhibition is the share of the control response that was lost under treatment.
